Series [1] deals with L1210. The series is described as follows: Antitumor activity against mouse L1210 cells […] in ip dosed C3H X DBA2 F1 hybrid mouse on day 0 and dosed at LD10 level once daily on days 1 to 5 assessed as increase in life span relative to control. Type of series: functional.
The species named for series [2] is Bos taurus. The series is described as follows: Displacement of ethidium from calf thymus DNA by fluorimetric method.
Series [3] has as its system Mus musculus. The series is described as follows: Toxicity in ip dosed C3H X DBA2 F1 hybrid mouse […] with mouse L1210 cells on day 0 and dosed once daily on days 1 to 5 measured after 50 days. As to conditions: in vivo, 1200 h. Type of series: organism-based.
Series [4] is described as follows: Lipophilic-hydrophilic balance, Rm of the compound by partition chromatography. Type of series: physicochemical.
Series [5] in a line: Displacement of ethidium from poly[d(A)]-poly[d(T)] DNA (unknown origin) by fluorimetric method.
Series [6] is described as follows: Displacement of ethidium from poly[d(A-T)]-poly[d(A-T)] DNA by fluorimetric method.
Series [7] can be described thus: Displacement of ethidium from poly[d(G-C)]-poly[d(G-C)] DNA (unknown origin) by fluorimetric method.
Series [8] has as its system L1210. The series is described as follows: Antitumor activity against mouse L1210 cells […] in ip dosed C3H X DBA2 F1 hybrid mouse on day 0 and dosed once daily on days 1 to 5 assessed as increase in life span relative to control. Type of series: functional.

“And” between values parts separate entries of the source, which are not always exact repeats. Equal values may be shown once.

For `C[n+]1ccccc1Nc1ccc(NC(=O)c2ccc(C(=O)Nc3ccc(Nc4cccc[n+]4C)cc3)cc2)cc1.Cc1ccc(S(=O)(=O)[O-])cc1.Cc1ccc(S(=O)(=O)[O-])cc1`, in series [1], the “log(ILSmax)” value is under 1.4. The C50 in series [2] was 5.6 µM; in series [5], 0.15 µM; in series [6] it was 2.8 µM; in series [7] it was 8.8 µM. In series [3], this compound registered an LD10 of 16 mg/kg. This compound also gave a Rm in series [4] of 0.13.

Consider `C[n+]1cccc(NC(=O)c2ccc(C(=O)Nc3ccc[n+](C)c3)cc2)c1.Cc1ccc(S(=O)(=O)[O-])cc1.Cc1ccc(S(=O)(=O)[O-])cc1`, for which the “log(ILSmax)” value in series [1] is under 1.4. The C50 in series [2] turned out to be 61 µM; in series [5] it was 3.8 µM; in series [6], 63 µM; in series [7], 80 µM. This compound yielded an LD10 in series [3] of 5 mg/kg. For the same compound, in series [4], the Rm amounted to 0.

On to `C[n+]1cccc(NC(=O)c2ccc(NC(=O)C34CCC(C(=O)Nc5ccc(C(=O)Nc6ccc[n+](C)c6)cc5)(CC3)CC4)cc2)c1.Cc1ccc(S(=O)(=O)[O-])cc1.Cc1ccc(S(=O)(=O)[O-])cc1`, for which, in series [1], the “log(ILSmax)” value was 2. In addition, the C50 in series [2] turned out to be 6.8 µM; in series [5], 1.6 µM; in series [6], 5.3 µM; in series [7], 11 µM. The LD10 in series [3] turned out to be 24 mg/kg. Besides, in series [8], the D40 turned out to be 4.3 mg/kg. The compound further yielded a Rm in series [4] of 0.31.

Consider `C[n+]1cccc(NC(=O)c2ccc(NC(=O)c3ccc(C(=O)Nc4ccc[n+](C)c4)cc3)cc2)c1.Cc1ccc(S(=O)(=O)[O-])cc1.Cc1ccc(S(=O)(=O)[O-])cc1`, for which, in series [1], the “log(ILSmax)” value was under 1.4. Besides, the C50 is 11.2 µM in series [2], 0.325 µM in series [5], 7.7 µM in series [6] and 22 µM in series [7]. The compound further registered an LD10 in series [3] of 4 mg/kg. In addition, the Rm in series [4] was -0.11.

Regarding `COc1cc(NC(=O)c2ccc(C(=O)Nc3ccc(C(=O)Nc4ccc[n+](C)c4)c(OC)c3)cc2)ccc1C(=O)Nc1ccc[n+](C)c1.Cc1ccc(S(=O)(=O)[O-])cc1.Cc1ccc(S(=O)(=O)[O-])cc1`, the “log(ILSmax)” value in series [1] was found to be 1.78. The C50 came to 0.4 µM in series [2], 0.18 µM in series [5], 0.3 µM in series [6] and 0.35 µM in series [7]. The compound also had an LD10 in series [3] of 41 mg/kg. Moreover, the D40 in series [8] worked out at 15 mg/kg. This compound also returned a Rm in series [4] of 0.15.

Regarding `C[n+]1ccc(Nc2ccc(NC(=O)c3ccc(Nc4cc[n+](C)c5c(N)cccc45)cc3)cc2)cc1.[I-].[I-]`, the “log(ILSmax)” value in series [1] came out at 2.48. In addition, the C50 came out at 0.85 µM in series [2], 0.056 µM in series [5], 0.2 µM in series [6] and 1.43 µM in series [7]. The LD10 in series [3] worked out at 60 mg/kg. Besides, the D40 in series [8] came out at 0.9 mg/kg. The Rm in series [4] was -0.1.

For `C[n+]1ccc(Nc2ccc(NC(=O)c3ccc(Nc4cc[n+](C)c5c(Cl)cccc45)cc3)cc2)cc1.Cc1ccc(S(=O)(=O)[O-])cc1.Cc1ccc(S(=O)(=O)[O-])cc1`, the “log(ILSmax)” value in series [1] is 1.7. The C50 was determined as 1.1 µM in series [2], 0.038 µM in series [5], 0.29 µM in series [6] and 1.4 µM in series [7]. The compound also gave an LD10 in series [3] of 55 mg/kg. Moreover, in series [8], the D40 is 50 mg/kg. Besides, in series [4], the Rm was found to be 0.51.

For `CC[n+]1ccc(Nc2ccc(NC(=O)c3ccc(Nc4cc[n+](CC)c5cc(N)ccc45)cc3N)cc2)cc1.[Br-].[Br-]`, in series [1], the “log(ILSmax)” value came to 2.39. Moreover, the C50 in series [2] is 0.52 µM; in series [5] it was 0.054 µM; in series [6], 0.13 µM; in series [7], 1.11 µM. The compound further showed an LD10 in series [3] of 11 mg/kg. Besides, the D40 in series [8] turned out to be 1.4 mg/kg. The compound also displayed a Rm in series [4] of 0.07.

On to `C[n+]1ccc(Nc2ccc(NC(=O)c3ccc(Nc4cc[n+](C)c5ccc(N)cc45)cc3N)cc2)cc1.[I-].[I-]`, for which the “log(ILSmax)” value in series [1] was 2.45. In addition, the C50 came out at 0.49 µM in series [2], 0.039 µM in series [5], 0.1 µM in series [6] and 1.1 µM in series [7]. In series [3], this compound had an LD10 of 20 mg/kg. Also, the D40 in series [8] was 2.9 mg/kg. For the same compound, in series [4], the Rm amounted to 0.01.

Regarding `C[n+]1ccc(Nc2ccc(NC(=O)c3ccc(Nc4cc[n+](C)c5ccc(N)cc45)cc3)cc2N)cc1.[I-].[I-]`, in series [1], the “log(ILSmax)” value came to 2.18. The C50 in series [2] was found to be 0.71 µM; in series [5], 0.067 µM; in series [6], 0.23 µM; in series [7], 1.3 µM. Also, the LD10 in series [3] turned out to be 3 mg/kg. The D40 in series [8] was determined as 0.7 mg/kg. The compound further registered a Rm in series [4] of -0.03.

`C[n+]1ccc(Nc2ccc(NC(=O)c3ccc(Nc4cc[n+](C)c5ccc(N)cc45)cc3)cc2)cc1.[Br-].[Br-]`: in series [1], the “log(ILSmax)” value is listed as 2.35. Also, the C50 was found to be 0.66 µM in series [2], 0.048 µM in series [5], 0.09 µM in series [6] and 1.05 µM in series [7]. The compound further had an LD10 in series [3] of 12 mg/kg. The D40 in series [8] is 1.2 mg/kg. Moreover, in series [4], the Rm is reported as 0.07.

`C/C(=N\NC(=N)N)c1ccc(C(=O)Nc2ccc(Nc3cc[n+](C)c4ccc(N)cc34)cc2)cc1.Cc1ccc(S(=O)(=O)O)cc1.Cc1ccc(S(=O)(=O)[O-])cc1`: the “log(ILSmax)” value in series [1] was 2.37. The C50 in series [2] is 0.4 µM; in series [5], 0.057 µM; in series [6] it was 0.12 µM; in series [7] it was 0.52 µM. This compound yielded an LD10 in series [3] of 40 mg/kg. In series [8], the D40 was determined as 2.6 mg/kg. Besides, in series [4], the Rm was -0.1.

Regarding `C[n+]1cccc(NC(=O)c2ccc(NC(=O)c3ccc(C(=O)Nc4ccc(C(=O)Nc5ccc[n+](C)c5)cc4)cc3)cc2)c1`, the C50 in series [2] is 0.83 µM and 0.42 µM; in series [5] it was 0.13 µM; in series [6], 0.79 µM and 0.41 µM; in series [7] it was 1.6 µM and 0.91 µM.

Turning to `C[n+]1ccc(Nc2ccc(NC(=O)c3ccc(C(=O)Nc4ccc(Nc5cc[n+](C)cc5)cc4)cc3)cc2)cc1.Cc1ccc(S(=O)(=O)[O-])cc1.Cc1ccc(S(=O)(=O)[O-])cc1`, in series [1], the “log(ILSmax)” value is reported as 2.33. The C50 in series [2] was 1.3 µM; in series [5], 0.043 µM; in series [6] it was 0.14 µM; in series [7], 1.8 µM. For the same compound, the LD10 in series [3] is 3.1 mg/kg. In series [8], the D40 is 0.3 mg/kg. Moreover, in series [4], the Rm is on record as 0.07.

As for `C[n+]1ccc(Nc2ccc(NC(=O)c3ccc(Nc4cc[n+](C)c5ccccc45)cc3)cc2)cc1.[Br-].[Br-]`, the “log(ILSmax)” value in series [1] came out at 2.23. Further, the C50 in series [2] is 1.4 µM; in series [5] it was 0.036 µM; in series [6], 0.16 µM; in series [7], 3 µM. In addition, the LD10 in series [3] amounted to 13 mg/kg. The D40 in series [8] came to 2 mg/kg. The Rm in series [4] is given as 0.29.

`CCCC[n+]1cccc(NC(=O)c2ccc(NC(=O)c3ccc(C(=O)Nc4ccc(C(=O)Nc5ccc[n+](CCCC)c5)cc4)cc3)cc2)c1.Cc1ccc(S(=O)(=O)[O-])cc1.Cc1ccc(S(=O)(=O)[O-])cc1`: the “log(ILSmax)” value in series [1] is recorded as 1.76. In addition, the C50 in series [2] turned out to be 0.46 µM; in series [5], 0.14 µM; in series [6], 0.41 µM; in series [7], 0.93 µM. The LD10 in series [3] came out at 58 mg/kg. Moreover, the D40 in series [8] was 30 mg/kg. The compound also had a Rm in series [4] of 0.51.

`Cc1cc(C(=O)Nc2ccc[n+](C)c2)ccc1NC(=O)c1ccc(C(=O)Nc2ccc(C(=O)Nc3ccc[n+](C)c3)cc2C)cc1.Cc1ccc(S(=O)(=O)[O-])cc1.Cc1ccc(S(=O)(=O)[O-])cc1`: the “log(ILSmax)” value in series [1] is 1.79. Also, the C50 in series [2] was determined as 11.7 µM; in series [5] it was 0.35 µM; in series [6] it was 6 µM; in series [7], 16.7 µM. The LD10 in series [3] was found to be 40 mg/kg. In addition, the D40 in series [8] turned out to be 27 mg/kg. In series [4], the Rm was 0.12.

On to `CCC[n+]1cccc(NC(=O)c2ccc(NC(=O)c3ccc(C(=O)Nc4ccc(C(=O)Nc5ccc[n+](CCC)c5)cc4)cc3)cc2)c1.Cc1ccc(S(=O)(=O)[O-])cc1.Cc1ccc(S(=O)(=O)[O-])cc1`, for which the “log(ILSmax)” value in series [1] was 2.06. For the same compound, the C50 in series [2] was 0.44 µM; in series [5], 0.12 µM; in series [6], 0.39 µM; in series [7], 0.9 µM. In series [3], this compound registered an LD10 of 27 mg/kg. The D40 in series [8] worked out at 12.9 mg/kg. In series [4], this compound yielded a Rm of 0.13.

On to `C[n+]1cccc(-c2ccc(NC(=O)c3ccc(C(=O)Nc4ccc(-c5ccc(-c6ccc(-c7ccc[n+](C)c7)cc6)cc5)cc4)cc3)cc2)c1.Cc1ccc(S(=O)(=O)[O-])cc1.Cc1ccc(S(=O)(=O)[O-])cc1`, for which the “log(ILSmax)” value in series [1] is reported as 2.1. The C50 in series [2] amounted to 0.29 µM; in series [5], 0.16 µM; in series [6], 0.22 µM; in series [7] it was 0.37 µM. Besides, the LD10 in series [3] came to 65 mg/kg. Besides, the D40 in series [8] was 17.9 mg/kg. In series [4], the Rm is -0.75.

Regarding `CC[n+]1cccc(NC(=O)c2ccc(NC(=O)c3ccc(C(=O)Nc4ccc(C(=O)Nc5ccc[n+](CC)c5)cc4)cc3)cc2)c1.Cc1ccc(S(=O)(=O)[O-])cc1.Cc1ccc(S(=O)(=O)[O-])cc1`, the “log(ILSmax)” value in series [1] is recorded as 2.24. Besides, the C50 was 0.48 µM in series [2], 0.11 µM in series [5], 0.4 µM in series [6] and 0.9 µM in series [7]. The same compound gave an LD10 in series [3] of 33 mg/kg. Also, in series [8], the D40 is 9.8 mg/kg. In series [4], this compound had a Rm of -0.32.

The values above are taken from ChEMBL document CHEMBL3228010, “Potential antitumor agents. 29. Quantitative structure-activity relationships for the antileukemic bisquaternary ammonium heterocycles” (J Med Chem, 1979).
